{
  "source": "ChEMBL document CHEMBL1152889",
  "about": "“Melatonin: Quantum-chemical and biochemical investigation of antioxidant activity” (2009)",
  "key": {"[1]": {"system": "Homo sapiens", "assay": "Antioxidant activity against lipid peroxidation in chronic renal failure patient plasma assessed as reduction in malondialdehyde level at 2 mg/kg treated once day before night sleep by thiobarbituric acid based spectrophotometry (Rvb=2.68 +/- 0.44 umol/L)", "type": "functional, organism-based", "parameters": "dose 2 mg/kg", "details": "TDE = time-dependent effect"}, "[2]": {"system": "Homo sapiens", "assay": "Antioxidant activity against lipid peroxidation in chronic renal failure patient plasma assessed as malondialdehyde level at 2 mg/kg treated once day before night sleep measured after 1 month by thiobarbituric acid based spectrophotometry (Rvb=2.68 +/- 0.44 umol/L)", "type": "functional"}, "[3]": {"system": "Homo sapiens", "assay": "Antioxidant activity against lipid peroxidation in chronic renal failure patient plasma assessed as malondialdehyde level at 2 mg/kg treated once day before night sleep measured after 2 months by thiobarbituric acid based spectrophotometry (Rvb=2.68 +/- 0.44 umol/L)", "type": "functional"}, "[4]": {"system": "Homo sapiens", "assay": "Antioxidant activity against lipid peroxidation in chronic renal failure patient plasma assessed as malondialdehyde level at 2 mg/kg treated once day before night sleep measured after 3 months by thiobarbituric acid based spectrophotometry (Rvb=2.68 +/- 0.44 umol/L)", "type": "functional"}},
  "data": [
    {"smiles": "COc1ccc2[nH]cc(CCNC(C)=O)c2c1", "note": "[MELATONIN]", "values": [
      {"measurement": "Activity", "setting": "[1]", "result": "tde"},
      {"measurement": "Activity", "setting": "[2]", "result": 4.02, "unit": "µM"},
      {"measurement": "Activity", "setting": "[3]", "result": 3.09, "unit": "µM"},
      {"measurement": "Activity", "setting": "[4]", "result": 2.79, "unit": "µM"}
    ]}
  ]
}
